Molecular target: TbNMT (Trypanosoma brucei brucei, UniProt Q388H8)
Sequence (Q388H8 1-446): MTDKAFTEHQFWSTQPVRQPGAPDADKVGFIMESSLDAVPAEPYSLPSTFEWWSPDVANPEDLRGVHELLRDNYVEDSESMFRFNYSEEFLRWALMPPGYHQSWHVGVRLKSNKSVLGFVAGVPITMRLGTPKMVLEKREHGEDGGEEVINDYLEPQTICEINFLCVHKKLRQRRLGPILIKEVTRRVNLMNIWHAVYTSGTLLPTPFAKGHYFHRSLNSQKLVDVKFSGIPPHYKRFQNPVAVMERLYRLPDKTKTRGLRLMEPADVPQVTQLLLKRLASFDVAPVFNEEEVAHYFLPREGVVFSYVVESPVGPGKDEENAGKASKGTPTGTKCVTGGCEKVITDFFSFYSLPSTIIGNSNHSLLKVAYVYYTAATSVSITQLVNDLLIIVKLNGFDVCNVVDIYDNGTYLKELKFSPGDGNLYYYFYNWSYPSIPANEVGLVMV

Compound	activity against TbNMT (in words)
3-((2,6-Dichloro-4-(3-(piperidin-4-yl)propyl)phenoxy)methyl)-2-methylpyridine [Compound 70]	no in vitro activity
Cc1nn(C)c(C)c1COc1cccc(-c2cccc(C3CCNCC3)c2)c1 [Compound 17, 4-(3′-((1,3,5-Trimethyl-1H-pyrazol-4-yl)methoxy)-[1,1′-biphenyl]-3-yl)piperidine]	completely inactive

— article PMC5734605 (Journal of Medicinal Chemistry, 2017)
